Experiments:
ROS in HCT116 cells = assay: CellROX reactive oxygen species measurement; format: cell-based, human; conditions: HCT116, vitamin C 1 mM as single intervention, 30 minutes
Method: Intracellular reactive-oxygen species (ROS) were measured using the CellROX oxidative stress reagents (Life Technologies, Cat. #: 10422). CellROX fluorogenic probe is designed to measure reactive-oxygen species (ROS) in live cells. […] For ROS measurement, cells were seeded in 10 cm petri dish (4×10^5 cells in CTR medium). After 24 hours cells were rinsed twice in 1×PBS and CTR or STS medium was added. 24 hours later, cells were trypsinized, resuspended in their respective media, and treated with 1 mM sodium ascorbate and 1 μM CellROX deep red reagent in the dark, for 30 minutes at 37° C. and 5% CO2. Then, fluorescence was immediately analyzed by flow cytometry (Attune NxT flow cytometer). Data were processed by Kaluza analysis software (Beckman coulter, version 2.0). Data were expressed as fold change of the median fluorescent intensity (MFI) of each treated sample versus the MFI of control sample.

[1] = system: KRAS wild type cell lines (SW48, HT29, PC-3, COV362), normal colon cell line (CCD841CoN) and normal fibroblasts (BJ); assay: Muse cell viability assay, KRAS wild type and normal cells; format: cell-based; conditions: single agent or in combination with STS condition
HO-1 = HO-1 expression in HCT116 (qPCR, western blot); format: cell-based, human; conditions: HCT116, CTR, vitamin C 350 μM 3 hours as single intervention
Method: Cells were washed twice in ice-cold PBS and lysates were prepared in RIPA lysis buffer (50 mM Tris HCl pH 7.4, 150 mM NaCl, 1% NP-40, 0.25% deoxycholic acid, 1 mM EDTA) supplemented with protease and phosphatase inhibitors (protease inhibitor cocktail set III EDTA-free, Calbiochem, Cat. #: S39134; PhosStop, Roche), Samples were sonicated (bioruptor plus, diogenode) and centrifuged at 16.1 g for 30 minutes at 4° C. Tumor tissues were collected and snap frozen in liquid nitrogen immediately after mice were sacrificed, and stored in -80° C. until use. […] Protein concentrations were determined by BCA assay (Thermo Fisher Scientific, Cat. #: 23225). Proteins were diluted in 1× Laemmli sample buffer, boiled at 95° C. for 5 minutes and 30 μg of total proteins were separated by using SDS-PAGE and analyzed by western blotting by standard procedures. […] Membranes were incubated overnight at 4° C. with gentle shaking with the following primary antibodies: […] ADI-SPA894), FTH (1:1000, Cell Signaling, Cat. #: 3998), AMPK (1:1000, Cell Signaling, Cat. #: 2532), phospho-[…] […] Bands intensity was quantified with NIH Image J software (version 1.48v). […] Resulting cDNA (1/20 v/v) was analyzed by real-time polymerase reaction (qRT-PCR) using TaqMan MBG probes with FAM reporter dyes. […]

Structure (SMILES): O=C1O[C@H]([C@@H](O)CO)C(O)=C1O [vitamin C, ascorbic acid]
- ROS levels (ROS in HCT116 cells): increase ROS levels
- sensitivity to vitamin C treatment [1]: not sensitive
- HO-1 mRNA and protein level (HO-1): significantly up-regulated HO-1 both at transcriptional and protein level
